# Measurements as given in patent publication US20150105252A1, “SUBSTITUTED PYRAZOLES AS HERBICIDES” (E I DU PONT DE NEMOURS AND COMPANY, priority 2013, published 2015).
# Legend:
# [1] = test system: oat, wild; assay: Test D postemergence; format: in vivo, Avena fatua; conditions: scale 0 to 100
# How it was run: (§1)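 Pre: sown in silt loam, sprayed at once. Post: grown in peat-moss/vermiculite mix, sprayed at 1–4 leaves (2–18 cm). Formulation: non-phytotoxic solvent + surfactant. Read-out: visual 0–100 vs controls, 14–21 d.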
# [2] = test system: canarygrass; assay: Test D preemergence; format: in vivo, Phalaris minor; conditions: Preemergence, scale 0 to 100
# How it was run: as §1
# [3] = test system: chamomile; assay: Test D preemergence; format: in vivo, Matricaria inodora; conditions: Preemergence, scale 0 to 100
# How it was run: as §1
# [4] = test system: lambsquarters; assay: Test D preemergence; format: in vivo, Chenopodium album; conditions: Preemergence, scale 0 to 100
# How it was run: as §1
# [5] = test system: mustard, wild; assay: Test D postemergence; format: in vivo, Sinapis arvensis; conditions: scale 0 to 100
# How it was run: as §1
# [6] = test system: chamomile; assay: Test D postemergence; format: in vivo, Matricaria inodora; conditions: scale 0 to 100
# How it was run: as §1
# [7] = test system: wheat, winter; assay: Test D preemergence; format: in vivo, Triticum aestivum; conditions: Preemergence, scale 0 to 100
# How it was run: as §1
# [8] = test system: wheat, spring; assay: Test D preemergence; format: in vivo, Triticum aestivum; conditions: Preemergence, scale 0 to 100
# How it was run: as §1
# [9] = test system: barley, winter; assay: Test D postemergence; format: in vivo, Hordeum vulgare; conditions: scale 0 to 100
# How it was run: as §1
# [10] = test system: barley, spring; assay: Test D postemergence; format: in vivo, Hordeum vulgare; conditions: scale 0 to 100
# How it was run: as §1
# [11] = test system: radish, wild; assay: Test D postemergence; format: in vivo, Raphanus raphanistrum; conditions: scale 0 to 100
# How it was run: as §1
# [12] = test system: speedwell; assay: Test D postemergence; format: in vivo, Veronica persica; conditions: scale 0 to 100
# How it was run: as §1
# [13] = test system: canarygrass; assay: Test D postemergence; format: in vivo, Phalaris minor; conditions: scale 0 to 100
# How it was run: as §1
# [14] = test system: bluegrass; assay: Test D preemergence; format: in vivo, Poa annua; conditions: Preemergence, scale 0 to 100
# How it was run: as §1
# [15] = test system: windgrass; assay: Test D postemergence; format: in vivo, Apera spica-venti; conditions: scale 0 to 100
# How it was run: as §1
# [16] = test system: field violet; assay: Test D postemergence; format: in vivo, Viola arvensis; conditions: scale 0 to 100
# How it was run: as §1
# [17] = test system: speedwell; assay: Test D preemergence; format: in vivo, Veronica persica; conditions: Preemergence, scale 0 to 100
# How it was run: as §1
# [18] = test system: oilseed rape; assay: Test D preemergence; format: in vivo, Brassica napus; conditions: Preemergence, scale 0 to 100
# How it was run: as §1
# [19] = test system: blackgrass; assay: Test D postemergence; format: in vivo, Alopecurus myosuroides; conditions: scale 0 to 100
# How it was run: as §1
# [20] = test system: oat, wild; assay: Test D preemergence; format: in vivo, Avena fatua; conditions: Preemergence, scale 0 to 100
# How it was run: as §1
smiles,measurement,setting,value
CCc1cc(C(=O)NCC(F)(F)F)nn1Cc1ccnc(SC(F)(F)F)c1 [Compound 214],"Oat, Wild plant response rating","[1]; Postemergence, 31 g ai/ha",15
same,"Oat, Wild plant response rating","[1]; Postemergence, 125 g ai/ha",20
same,"Oat, Wild plant response rating","[1]; Postemergence, 250 g ai/ha",40
same,"Oat, Wild plant response rating","[1]; postemergence, 62 g ai/ha",15
same,"Plant response rating, Canarygrass",[2]; 31 g ai/ha,40
same,"Plant response rating, Canarygrass",[2]; 62 g ai/ha,65
same,"Plant response rating, Canarygrass",[2]; 125 g ai/ha,100
same,"Plant response rating, Canarygrass",[2]; 250 g ai/ha,100
same,"Plant response rating, Chamomile",[3]; 31 g ai/ha,50
same,"Plant response rating, Chamomile",[3]; 62 g ai/ha,100
same,"Plant response rating, Chamomile",[3]; 125 g ai/ha,100
same,"Plant response rating, Chamomile",[3]; 250 g ai/ha,100
same,"Plant response rating, Lambsquarters",[4]; 62 g ai/ha,90
same,"Plant response rating, Lambsquarters",[4]; 125 g ai/ha,100
same,"Plant response rating, Lambsquarters",[4]; 250 g ai/ha,100
same,"Mustard, Wild plant response rating","[5]; Postemergence, 31 g ai/ha",70
same,"Mustard, Wild plant response rating","[5]; Postemergence, 125 g ai/ha",100
same,"Mustard, Wild plant response rating","[5]; Postemergence, 250 g ai/ha",100
same,"Mustard, Wild plant response rating","[5]; postemergence, 62 g ai/ha",70
same,Chamomile plant response rating,"[6]; Postemergence, 31 g ai/ha",40
same,Chamomile plant response rating,"[6]; Postemergence, 125 g ai/ha",60
same,Chamomile plant response rating,"[6]; Postemergence, 250 g ai/ha",70
same,Chamomile plant response rating,"[6]; postemergence, 62 g ai/ha",40
same,"Plant response rating, Wheat, Winter",[7]; 62 g ai/ha,15
same,"Plant response rating, Wheat, Winter",[7]; 125 g ai/ha,55
same,"Plant response rating, Wheat, Winter",[7]; 250 g ai/ha,75
same,"Plant response rating, Wheat, Spring",[8]; 62 g ai/ha,10
same,"Plant response rating, Wheat, Spring",[8]; 125 g ai/ha,40
same,"Plant response rating, Wheat, Spring",[8]; 250 g ai/ha,75
same,"Barley, Winter plant response rating","[9]; Postemergence, 31 g ai/ha",20
same,"Barley, Winter plant response rating","[9]; Postemergence, 125 g ai/ha",30
same,"Barley, Winter plant response rating","[9]; Postemergence, 250 g ai/ha",35
same,"Barley, Winter plant response rating","[9]; postemergence, 62 g ai/ha",20
same,"Barley, Spring plant response rating","[10]; Postemergence, 31 g ai/ha",15
same,"Barley, Spring plant response rating","[10]; Postemergence, 125 g ai/ha",20
same,"Barley, Spring plant response rating","[10]; Postemergence, 250 g ai/ha",40
same,"Barley, Spring plant response rating","[10]; postemergence, 62 g ai/ha",15
same,"Radish, Wild plant response rating","[11]; Postemergence, 31 g ai/ha",65
same,"Radish, Wild plant response rating","[11]; Postemergence, 125 g ai/ha",70
same,"Radish, Wild plant response rating","[11]; Postemergence, 250 g ai/ha",100
same,"Radish, Wild plant response rating","[11]; postemergence, 62 g ai/ha",65
same,Speedwell plant response rating,"[12]; Postemergence, 31 g ai/ha",90
same,Speedwell plant response rating,"[12]; Postemergence, 125 g ai/ha",95
same,Speedwell plant response rating,"[12]; Postemergence, 250 g ai/ha",100
same,Speedwell plant response rating,"[12]; postemergence, 62 g ai/ha",90
same,Canarygrass plant response rating,"[13]; Postemergence, 31 g ai/ha",15
same,Canarygrass plant response rating,"[13]; Postemergence, 125 g ai/ha",15
same,Canarygrass plant response rating,"[13]; Postemergence, 250 g ai/ha",30
same,Canarygrass plant response rating,"[13]; postemergence, 62 g ai/ha",15
same,"Plant response rating, Bluegrass",[14]; 31 g ai/ha,40
same,"Plant response rating, Bluegrass",[14]; 62 g ai/ha,65
same,"Plant response rating, Bluegrass",[14]; 125 g ai/ha,85
same,"Plant response rating, Bluegrass",[14]; 250 g ai/ha,100
same,Windgrass plant response rating,"[15]; Postemergence, 31 g ai/ha",20
same,Windgrass plant response rating,"[15]; Postemergence, 125 g ai/ha",30
same,Windgrass plant response rating,"[15]; Postemergence, 250 g ai/ha",40
same,Windgrass plant response rating,"[15]; postemergence, 62 g ai/ha",20
same,Field Violet plant response rating,"[16]; Postemergence, 31 g ai/ha",100
same,Field Violet plant response rating,"[16]; Postemergence, 125 g ai/ha",100
same,Field Violet plant response rating,"[16]; Postemergence, 250 g ai/ha",100
same,Field Violet plant response rating,"[16]; postemergence, 62 g ai/ha",100
same,"Plant response rating, Speedwell",[17]; 62 g ai/ha,100
same,"Plant response rating, Speedwell",[17]; 125 g ai/ha,100
same,"Plant response rating, Speedwell",[17]; 250 g ai/ha,100
same,"Plant response rating, Oilseed Rape",[18]; 62 g ai/ha,65
same,"Plant response rating, Oilseed Rape",[18]; 125 g ai/ha,100
same,"Plant response rating, Oilseed Rape",[18]; 250 g ai/ha,100
same,Blackgrass plant response rating,"[19]; Postemergence, 31 g ai/ha",15
same,Blackgrass plant response rating,"[19]; Postemergence, 125 g ai/ha",20
same,Blackgrass plant response rating,"[19]; Postemergence, 250 g ai/ha",70
same,Blackgrass plant response rating,"[19]; postemergence, 62 g ai/ha",15
same,"Plant response rating, Oat, Wild",[20]; 62 g ai/ha,20
same,"Plant response rating, Oat, Wild",[20]; 125 g ai/ha,70
same,"Plant response rating, Oat, Wild",[20]; 250 g ai/ha,95
